What was measured:
[1] = biological target: T1, Bradykinin-1 receptor (Homo sapiens (Human), UniProt P46663); assay: Receptor binding assay (B1R Binding Assay), [3H]-Kallidin (Des Arg10, Leu9) displacement; conditions: membranes from CHO-K1 cells overexpressing Bradykinin-1 receptor; 6 nM radioligand
Description: Binding assays were done with membranes from CHO-K1 cells overexpressing Bradykinin-1 receptor.
To determine non-specific binding 10 μM Lys-(Des-Arg^9)-Bradykinin (Bachem) was added. Membranes were harvested through GF/B (glass fiber filter; PerkinElmer) plates, equilibrated with 0.5% polyethylenimine, air dried at 50° C. for 2 h. Radioactivity was determined by counting in a topcounter (NXT Packard).

[2] = biological target: T1, Bradykinin-1 receptor; assay: Calcium mobilization assay (FLIPR, Fluo-4) in GeneBLAzer Bradykinin (B1)-NFAT-bla CHO-K1 cells; type: cell-based; conditions: antagonist activity; CHO-K1 cells stably overexpressing the human bradykinin 1 receptor; read-out: Ca mobilization Assay IC50
Description: Calcium Mobilization Assay
GeneBLAzer® Bradykinin (B1)-NFAT-bla CHO-K1 cells (from Invitrogen) stably overexpressing the human bradykinin 1 receptor were cultured in DMEM (high glucose) supplemented with 10% dialysed FBS, 1% NEAA (non essential amino acids) 1% penicillin/streptomycin, 1% G418 and 0.1 mg/ml zeocin.
For the assay cells were grown overnight in 384-well black clear flat bottom polystyrene plates (Costar) at 37° C. at 5% CO2. After washing with DMEM, 20 mM Hepes, 2.5 mM probenecid, 0.1% BSA (DMEM assay buffer) cells were loaded with 4 μM Fluo-4 in the same DMEM assay buffer for 2 hours at 30° C. Excess dye was removed and cells were washed with DMEM assay buffer. 384-well compound plates were prepared with DMEM assay buffer/0.5% DMSO with or without various concentrations of test compounds. Usually compounds were tested for agonist and antagonist activity.
Test compounds were added to the assay plate and agonist activity was monitored as fluorescence for 80 seconds with a FLIPR (488 nm excitation; 510-570 nm emission; Molecular Devices). After 20-30 min. of incubation at 30° C., 20 nM […] (R&D; Roche) was added and fluorescence was monitored again for 80 seconds. Increases in intracellular calcium are reported as maximum fluorescence after agonist exposure minus basal fluorescence before exposure.

T1 sequence (P46663 whole entry): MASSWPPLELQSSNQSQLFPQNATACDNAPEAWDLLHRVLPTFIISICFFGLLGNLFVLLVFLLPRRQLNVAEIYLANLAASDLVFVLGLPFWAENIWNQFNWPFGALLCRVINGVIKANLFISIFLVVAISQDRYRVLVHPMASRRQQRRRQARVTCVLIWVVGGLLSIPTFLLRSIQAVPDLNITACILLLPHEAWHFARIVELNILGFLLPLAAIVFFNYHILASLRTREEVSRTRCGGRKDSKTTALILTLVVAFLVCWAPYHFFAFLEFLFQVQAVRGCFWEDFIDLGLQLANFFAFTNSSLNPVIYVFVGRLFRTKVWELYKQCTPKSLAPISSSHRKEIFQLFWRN

Row | Structure (SMILES) | Ki [1] | IC50 [2]
1 | Cc1nc(-c2c(F)cc(Cl)cc2-c2ccc3c(c2)CCCC3NC(=O)C2(NC(=O)C(F)(F)F)CC2)no1 (racemic) [Example 11, 1-(2,2,2-Trifluoro-acetylamino)-cyclopropanecarboxylic acid{(rac)-6-[5-chloro-3-fluoro-2-(5-methyl-[1,2,4]oxadiazol-3-yl)-phenyl]-1,2,3,4-tetrahydro-naphthalen-1-yl}-amide] | 0.0416 µM | 0.004 µM
2 | Cn1nnc(-c2c(F)cc(Cl)cc2-c2cnc3c(c2)CCC3NC(=O)C2(NC(=O)OC(C)(C)C)CC2)n1 (racemic) [Example 54, (1-{(rac)-3-[5-Chloro-3-fluoro-2-(2-methyl-2H-tetrazol-5-yl)-phenyl]-6,7-dihydro-5H-[1]pyrindin-7-ylcarbamoyl}-cyclopropyl)-carbamic acid tert-butyl ester] | 0.0632 µM | 0.0058 µM
3 | Cc1nc(-c2c(F)cc(Cl)cc2-c2cnc3c(c2)CCC3NC(=O)C2(NC(=O)c3ccnnc3)CC2)no1 (single isomer, unassigned) [Example 41, Pyridazine-4-carboxylic acid(1-{(S or R) 3-[5-chloro-3-fluoro-2-(5-methyl-[1,2,4]oxadiazol-3-yl)-phenyl]-6,7-dihydro-5H-[1]pyrindin-7-ylcarbamoyl}-cyclopropyl)-amide] | 0.004 µM | 0.0002 µM
4 | Cc1nc(-c2c(F)cc(Cl)cc2-c2ccc3c(c2)CC[C@@H]3NC(=O)C2(NC(=O)c3cncnc3)COC2)no1 [Example 50, Pyrimidine-5-carboxylic acid (3-{(S)-5-[5-chloro-3-fluoro-2-(5-methyl-[1,2,4]oxadiazol-3-yl)-phenyl]-indan-1-ylcarbamoyl}-oxetan-3-yl)-amide] | 0.0048 µM | 0.0004 µM
5 | COc1ncc(C(=O)NC2(C(=O)N[C@H]3CCc4cc(-c5cc(Cl)cc(F)c5-c5noc(C)n5)ccc43)CC2)cn1 [Example 26, 2-Methoxy-pyrimidine-5-carboxylic acid(1-{(S)-5-[5-chloro-3-fluoro-2-(5-methyl-[1,2,4]oxadiazol-3-yl)-phenyl]-indan-1-ylcarbamoyl}-cyclopropyl)-amide] | 0.0026 µM | 0.0002 µM
6 | Cn1nnc(-c2c(F)cc(Cl)cc2-c2cnc3c(c2)CCC3NC(=O)C2(NC(=O)C(F)(F)F)CC2)n1 (racemic) [Example 13, 1-(2,2,2-Trifluoro-acetylamino)-cyclopropanecarboxylic acid{(rac)-3-[5-chloro-3-fluoro-2-(2-methyl-2H-tetrazol-5-yl)-phenyl]-6,7-dihydro-5H-[1]pyrindin-7-yl}-amide] | 0.0095 µM | 0.0005 µM
7 | Cc1nc(-c2c(F)cc(Cl)cc2-c2ccc3c(c2)CC[C@@H]3NC(=O)C2(NC(=O)c3ccno3)COC2)no1 [Example 51, Isoxazole-5-carboxylic acid (3-{(S)-5-[5-chloro-3-fluoro-2-(5-methyl-[1,2,4]oxadiazol-3-yl)-phenyl]-indan-1-ylcarbamoyl}-oxetan-3-yl)-amide] | 0.0118 µM | 0.0027 µM
8 | Cc1cc(C(=O)NC2(C(=O)N[C@H]3CCc4cc(-c5cc(Cl)cc(F)c5-c5noc(C)n5)ccc43)COC2)on1 [Example 52, 3-Methyl-isoxazole-5-carboxylic acid (3-{(S)-5-[5-chloro-3-fluoro-2-(5-methyl-[1,2,4]oxadiazol-3-yl)-phenyl]-indan-1-ylcarbamoyl}-oxetan-3-yl)-amide] | 0.0257 µM | 0.0043 µM
9 | Cc1nc(-c2c(F)cc(Cl)cc2-c2cc(F)c3c(c2)CCC3NC(=O)C2(NC(=O)C(F)(F)F)CC2)no1 (racemic) [Example 16, 1-(2,2,2-Trifluoro-acetylamino)-cyclopropanecarboxylic acid{(rac)-5-[5-chloro-3-fluoro-2-(5-methyl-[1,2,4]oxadiazol-3-yl)-phenyl]-7-fluoro-indan-1-yl}-amide] | 0.011 µM | 0.0005 µM
10 | Cc1nc(-c2c(F)cc(Cl)cc2-c2ccc3c(c2)CC[C@@H]3NC(=O)C2(NC(=O)OC(C)(C)C)CC2)no1 [Example 23, (1-{(S)-5-[5-Chloro-3-fluoro-2-(5-methyl-[1,2,4]oxadiazol-3-yl)-phenyl]-indan-1-ylcarbamoyl}-cyclopropyl)-carbamic acid tert-butyl ester] | 0.669 µM | 0.332 µM
11 | Cc1nc(-c2c(F)cc(Cl)cc2-c2ccc3c(c2)CC[C@@H]3NC(=O)C2(NC(=O)C(F)(F)F)COC2)no1 [Example 7, 3-(2,2,2-Trifluoro-acetylamino)-oxetane-3-carboxylic acid{(S)-5-[5-chloro-3-fluoro-2-(5-methyl-[1,2,4]oxadiazol-3-yl)-phenyl]-indan-1-yl}-amide] | 0.0374 µM | 0.0286 µM
12 | Cc1nc(-c2c(F)cc(Cl)cc2-c2ccc3c(c2)CC[C@@H]3NC(=O)C2(NC(=O)c3ccno3)CC2)no1 [Example 28, Isoxazole-5-carboxylic acid(1-{(S)-5-[5-chloro-3-fluoro-2-(5-methyl-[1,2,4]oxadiazol-3-yl)-phenyl]-indan-1-ylcarbamoyl}-cyclopropyl)-amide] | 0.0041 µM | 0.0003 µM
13 | Cc1nc(-c2c(F)cc(Cl)cc2-c2ccc3c(c2)OCC3NC(=O)C2(NC(=O)C(F)(F)F)CC2)no1 (racemic) [Example 19, 1-(2,2,2-Trifluoro-acetylamino)-cyclopropanecarboxylic acid{(rac)-6-[5-chloro-3-fluoro-2-(5-methyl-[1,2,4]oxadiazol-3-yl)-phenyl]-2,3-dihydro-benzofuran-3-yl}-amide] | 0.0333 µM | 0.0045 µM
14 | Cc1nc(-c2c(F)cc(Cl)cc2-c2ccc3c(c2)OCCC3NC(=O)C2(NC(=O)C(F)(F)F)CC2)no1 (racemic) [Example 14, 1-(2,2,2-Trifluoro-acetylamino)-cyclopropanecarboxylic acid{(rac)-7-[5-chloro-3-fluoro-2-(5-methyl-[1,2,4]oxadiazol-3-yl)-phenyl]-chroman-4-yl}-amide] | 0.212 µM | 0.0248 µM
15 | Cc1nc(-c2c(F)cc(Cl)cc2-c2ccc3c(c2)CC[C@@H]3NC(=O)C2(N)CC2)no1 [Example 24, 1-Amino-cyclopropanecarboxylic acid{(S)-5-[5-chloro-3-fluoro-2-(5-methyl-[1,2,4]oxadiazol-3-yl)-phenyl]-indan-1-yl}-amide] | 0.0364 µM | 0.005 µM
16 | Cc1nc(-c2c(F)cc(Cl)cc2-c2ccc3c(c2)OCC3NC(=O)C2(NC(=O)c3ccnnc3)CC2)no1 (racemic) [Example 46, Pyridazine-4-carboxylic acid(1-{(rac)-6-[5-chloro-3-fluoro-2-(5-methyl-[1,2,4]oxadiazol-3-yl)-phenyl]-2,3-dihydro-benzofuran-3-ylcarbamoyl}-cyclopropyl)-amide] | 0.0191 µM | 0.0047 µM
17 | COC(=O)c1c(Cl)cccc1-c1ccc2c(c1)CCC2NC(=O)C1(NC(=O)C(F)(F)F)CC1 (racemic) [Example 3, (rac)-2-Chloro-6-(1-{[1-(2,2,2-trifluoro-acetylamino)-cyclopropanecarbonyl]-amino}-indan-5-yl)-benzoic acid methyl ester] | 0.123 µM | 0.0474 µM
18 | Cc1nc(-c2c(F)cc(Cl)cc2-c2ccc3c(c2)CCC3(C)NC(=O)C2(NC(=O)C(F)(F)F)CC2)no1 (racemic) [Example 17, 1-(2,2,2-Trifluoro-acetylamino)-cyclopropanecarboxylic acid{(rac)-5-[5-chloro-3-fluoro-2-(5-methyl-[1,2,4]oxadiazol-3-yl)-phenyl]-1-methyl-indan-1-yl}-amide] | 0.0059 µM | 0.0006 µM
19 | O=C(NC1(C(=O)NC2CCc3cc(-c4cc(Cl)cc(Cl)c4OCC(F)F)ccc32)CC1)C(F)(F)F (racemic) [Example 2, 1-(2,2,2-Trifluoro-acetylamino)-cyclopropanecarboxylic acid (rac)-{5-[3,5-dichloro-2-(2,2-difluoro-ethoxy)-phenyl]-indan-1-yl}-amide] | 0.146 µM | 0.0768 µM
20 | Cc1nc(-c2c(F)cc(Cl)cc2-c2ccc3c(c2)OCC3NC(=O)C2(N)CC2)no1 (racemic) [Example 45, 1-Amino-cyclopropanecarboxylic acid{(rac)-6-[5-chloro-3-fluoro-2-(5-methyl-[1,2,4]oxadiazol-3-yl)-phenyl]-2,3-dihydro-benzofuran-3-yl}-amide] | 1.53 µM | 0.701 µM
21 | Cc1nc(-c2c(F)cc(Cl)cc2-c2ccc3c(c2)SCC3NC(=O)C2(NC(=O)C(F)(F)F)CC2)no1 (racemic) [Example 21, 1-(2,2,2-Trifluoro-acetylamino)-cyclopropanecarboxylic acid{(rac)-6-[5-chloro-3-fluoro-2-(5-methyl-[1,2,4]oxadiazol-3-yl)-phenyl]-2,3-dihydro-benzo[b]thiophen-3-yl}-amide] | 0.0095 µM | 0.0023 µM
22 | Cn1nnc(-c2c(F)cc(Cl)cc2-c2ccc3c(c2)SCC3NC(=O)C2(N)CC2)n1 (racemic) [Example 61, 1-Amino-cyclopropanecarboxylic acid{(rac)-6-[5-chloro-3-fluoro-2-(2-methyl-2H-tetrazol-5-yl)-phenyl]-2,3-dihydro-benzo[b]thiophen-3-yl}-amide] | 0.264 µM | 0.0174 µM

— patent US8592426B2, “Aryl-benzocycloalkyl amide derivatives” (Hoffmann—La Roche Inc., priority 2011, dated 2013)
